Converted amounts (≈) assume the structure as drawn.
Assays:
[1] = tested on: Salmonella typhimurium TA102; assay: Ames test (plate incorporation), TA102
[2] = MTT assay for cytotoxicity; type: cell-based, Chinese hamster; details: Chinese hamster, CHO-K1 cells, read-out: cell viabilities
CHO-K1 cells = assay: MTT assay for cytotoxicity; type: cell-based, Chinese hamster; details: Cricetulus griseus, MTT, 24 h, read-out: half maximal inhibitory concentration (IC50)
[3] = 28-day oral toxicity test: body weight; type: in vivo
[4] = Ferric reducing ability of plasma (FRAP); details: 10 mg/mL antrocin
Experimental: The following methodology describes the FRAP assay: Add 10 µL of sample to a 96-well plate. For each sample, a parallel sample was prepared as a sample background control. Add 4 µL of FRAP Positive Control to each well and make up to 10 µL with FRAP Assay Buffer. For standard curve preparation, add 0, 2, 4, 6, 8, and 10 µL of a 2 mM ferrous standard solution to the wells of a 96-well plate to generate 0, 4, 8, 12, 16, and 20 nmol/well of ferrous iron, respectively. Adjust the volume to 10 µL/well with FRAP Assay Buffer. Mix sufficient reagents for the number of tests to be performed, including: Add 190 µL of Reaction Mix to the wells of the standard curve, positive control, and test samples. Add 190 µL Background Control Mix to the sample background control wells and mix well. After 60 min of reaction at 37 °C, measure the absorbance at 594 nm. Subtract 0 nmol standard readings from all standard curve readings to draw a ferrous standard curve. If the sample background control is significant, subtract the background control reading from its paired sample reading. Apply the sample OD value to the ferrous standard curve to obtain the reduced ferrous ion B nmol generated during the reaction.
Use the following calculation to determine the mM ferrous equivalence of the sample.
Sample FRAP or mM ferrous equivalents = B × D/V = nmol/µL(2) […]

ICR male mice = assay: In vivo mammalian erythrocyte micronucleus test
[5] = tested on: lung cancer tumor xenografts; set-up: method as in PMID 23880305; details: 5 mg/kg/day intraperitoneal; cited from earlier work
[6] = tested on: Salmonella typhimurium TA1535; assay: Ames test (plate incorporation), TA1535

Compound: C=C1CC[C@H]2C(C)(C)CCC[C@@]23C(=O)OC[C@@H]13 [Antrocin, (-)-Antrocin]
- Number of Revertant ([1]; TA102, with S9, 0.003125 mg/plate): 352.0 ± 8.5 Colony/Plate
- Number of Revertant ([1]; TA102, with S9, 0.00625 mg/plate): 326.7 ± 5.9 Colony/Plate
- Number of Revertant ([1]; TA102, with S9, 0.025 mg/plate): 327.3 ± 7.7 Colony/Plate
- Number of Revertant ([1]; TA102, with S9, 0.05 mg/plate): 322.0 ± 6.2 Colony/Plate
- Number of Revertant ([1]; TA102, without S9, 0.003125 mg/plate): 245.7 ± 10.4 Colony/Plate
- Number of Revertant ([1]; TA102, without S9, 0.00625 mg/plate): 246.0 ± 16.4 Colony/Plate
- Number of Revertant ([1]; TA102, without S9, 0.025 mg/plate): 278.3 ± 4.5 Colony/Plate
- Number of Revertant ([1]; TA102, without S9, 0.05 mg/plate): 270.0 ± 11.2 Colony/Plate
- viability at 24 h, 31.25 μg/mL ([2]; 31.25 μg/mL): 81.3 ± 5%
- viability at 24 h, 62.5 μg/mL ([2]; 62.5 μg/mL): 62.9 ± 8.9%
- viability at 24 h, 250 μg/mL ([2]; 250 μg/mL): 24.8 ± 1.9%
- viability at 24 h, 500 μg/mL ([2]; 500 μg/mL): 22.1 ± 1.5%
- IC50 (CHO-K1 cells): ~123 mg/L (≈ 524 µM)
- Body Weight ([3]; female rats, 7.5 mg/kg oral, 0-Day): 163.3 ± 6.3 g
- Body Weight ([3]; female rats, 7.5 mg/kg oral, 7-Day): 190.0 ± 9.0 g
- Body Weight Gain ([3]; female rats, 7.5 mg/kg oral, 7-Day (7th − 0th)): 26.7 ± 5.6 g
- Body Weight ([3]; female rats, 7.5 mg/kg oral, 14-Day): 212.9 ± 12.1 g
- Body Weight Gain ([3]; female rats, 7.5 mg/kg oral, 14-Day (14th − 7th)): 22.8 ± 6.0 g
- Body Weight ([3]; female rats, 7.5 mg/kg oral, 21-Day): 229.3 ± 14.6 g
- Body Weight Gain ([3]; female rats, 7.5 mg/kg oral, 21-Day (21st − 14th)): 16.4 ± 5.2 g
- Body Weight ([3]; female rats, 7.5 mg/kg oral, 28-Day): 246.6 ± 21.7 g
- Body Weight Gain ([3]; female rats, 7.5 mg/kg oral, 28-Day (28th − 21st)): 17.3 ± 7.9 g
- Body Weight ([3]; female rats, 37.5 mg/kg oral, 0-Day): 162.4 ± 6.3 g
- Body Weight ([3]; female rats, 37.5 mg/kg oral, 7-Day): 188.5 ± 7.9 g
- Body Weight Gain ([3]; female rats, 37.5 mg/kg oral, 7-Day (7th − 0th)): 26.1 ± 4.1 g
- Body Weight ([3]; female rats, 37.5 mg/kg oral, 14-Day): 212.0 ± 7.0 g
- Body Weight Gain ([3]; female rats, 37.5 mg/kg oral, 14-Day (14th − 7th)): 23.4 ± 3.6 g
- Body Weight ([3]; female rats, 37.5 mg/kg oral, 21-Day): 230.1 ± 9.7 g
- Body Weight Gain ([3]; female rats, 37.5 mg/kg oral, 21-Day (21st − 14th)): 18.1 ± 5.0 g
- Body Weight ([3]; female rats, 37.5 mg/kg oral, 28-Day): 241.7 ± 13.6 g
- Body Weight Gain ([3]; female rats, 37.5 mg/kg oral, 28-Day (28th − 21st)): 11.6 ± 6.3 g
- Body Weight ([3]; male rats, 7.5 mg/kg oral, 0-Day): 181.4 ± 5.1 g
- Body Weight ([3]; male rats, 7.5 mg/kg oral, 7-Day): 237.9 ± 13.6 g
- Body Weight Gain ([3]; male rats, 7.5 mg/kg oral, 7-Day (7th − 0th)): 56.5 ± 10.1 g
- Body Weight ([3]; male rats, 7.5 mg/kg oral, 14-Day): 295.0 ± 22.5 g
- Body Weight Gain ([3]; male rats, 7.5 mg/kg oral, 14-Day (14th − 7th)): 57.1 ± 8.9 g
- Body Weight ([3]; male rats, 7.5 mg/kg oral, 21-Day): 349.5 ± 34.3 g
- Body Weight Gain ([3]; male rats, 7.5 mg/kg oral, 21-Day (21st − 14th)): 54.5 ± 12.4 g
- Body Weight ([3]; male rats, 7.5 mg/kg oral, 28-Day): 389.6 ± 46.6 g
- Body Weight Gain ([3]; male rats, 7.5 mg/kg oral, 28-Day (28th − 21st)): 40.1 ± 12.5 g
- Body Weight ([3]; male rats, 37.5 mg/kg oral, 0-Day): 183.9 ± 9.0 g
- Body Weight ([3]; male rats, 37.5 mg/kg oral, 7-Day): 235.6 ± 9.6 g
- Body Weight Gain ([3]; male rats, 37.5 mg/kg oral, 7-Day (7th − 0th)): 51.8 ± 4.7 g
- Body Weight ([3]; male rats, 37.5 mg/kg oral, 14-Day): 289.0 ± 17.3 g
- Body Weight Gain ([3]; male rats, 37.5 mg/kg oral, 14-Day (14th − 7th)): 53.4 ± 13.9 g
- Body Weight ([3]; male rats, 37.5 mg/kg oral, 21-Day): 332.3 ± 21.0 g
- Body Weight Gain ([3]; male rats, 37.5 mg/kg oral, 21-Day (21st − 14th)): 43.2 ± 7.7 g
- Body Weight ([3]; male rats, 37.5 mg/kg oral, 28-Day): 367.6 ± 30.6 g
- Body Weight Gain ([3]; male rats, 37.5 mg/kg oral, 28-Day (28th − 21st)): 35.3 ± 12.9 g
- Ferric Reducing Ability of Plasma (mM Ferrous Equivalent) [4]: 0.218 ± 0.004 mM Ferrous Equivalent
- Mn-RETs/1000RETs (‰) (ICR male mice; 48 h, 100 mg/kg oral gavage): 2.2 ± 0.9 ‰
- RETs/1000RBCs (‰) (ICR male mice; 48 h, 100 mg/kg oral gavage): 20.4 ± 2.4 ‰
- frequencies of micronuclei (ICR male mice; 48 h, 250 mg/kg): 18.8 ± 1.9 ‰
- Mn-RETs/1000RETs (‰) (ICR male mice; 48 h, 250 mg/kg oral gavage): 1.5 ± 0.2 ‰
- RETs/1000RBCs (‰) (ICR male mice; 48 h, 250 mg/kg oral gavage): 18.8 ± 1.9 ‰
- frequencies of micronuclei (ICR male mice; 48 h, […]): 20.8 ± 2.5 ‰
- frequencies of micronuclei (ICR male mice; 72 h, 100 mg/kg): 31.0 ± 6.1 ‰
- Mn-RETs/1000RETs (‰) (ICR male mice; 72 h, 100 mg/kg oral gavage): 3.0 ± 1.0 ‰
- RETs/1000RBCs (‰) (ICR male mice; 72 h, 100 mg/kg oral gavage): 31.0 ± 6.1 ‰
- frequencies of micronuclei (ICR male mice; 72 h, 250 mg/kg): 26.5 ± 4.6 ‰
- Mn-RETs/1000RETs (‰) (ICR male mice; 72 h, 250 mg/kg oral gavage): 2.2 ± 0.5 ‰
- RETs/1000RBCs (‰) (ICR male mice; 72 h, 250 mg/kg oral gavage): 26.5 ± 4.6 ‰
- frequencies of micronuclei (ICR male mice; 72 h, […]): 28.9 ± 5.0 ‰
- frequency of micronuclei versus control (ICR male mice; antrocin-treated groups after 48 or 72 h): no significant changes
- growth of lung cancer tumor xenografts [5]: significantly suppressed the growth
- Number of Revertant ([6]; TA1535, with S9, 0.003125 mg/plate): 17.3 ± 0.5 Colony/Plate
- Number of Revertant ([6]; TA1535, with S9, 0.00625 mg/plate): 15.7 ± 6.1 Colony/Plate
- Number of Revertant ([6]; TA1535, with S9, 0.025 mg/plate): 18.0 ± 1.6 Colony/Plate
- Number of Revertant ([6]; TA1535, with S9, 0.05 mg/plate): 14.0 ± 2.4 Colony/Plate
- Number of Revertant ([6]; TA1535, without S9, 0.003125 mg/plate): 11.7 ± 2.4 Colony/Plate
- Number of Revertant ([6]; TA1535, without S9, 0.00625 mg/plate): 14.7 ± 4.0 Colony/Plate
- Number of Revertant ([6]; TA1535, without S9, 0.025 mg/plate): 10.7 ± 1.2 Colony/Plate
- Number of Revertant ([6]; TA1535, without S9, 0.05 mg/plate): 12.7 ± 2.9 Colony/Plate
